Experiments:
Olaparib/AZD2281 = compound: O=C(c1cc(Cc2n[nH]c(=O)c3ccccc23)ccc1F)N1CCN(C(=O)C2CC2)CC1 [Olaparib/AZD2281]
Buparlisib/NVP-BKM120 = compound: Nc1cc(C(F)(F)F)c(-c2cc(N3CCOCC3)nc(N3CCOCC3)n2)cn1 [Buparlisib/NVP-BKM120]
[1] = compound: CNc1nc(-c2ccc3c(N)n[nH]c3c2)cc(N2C[C@@H](C(=O)NC3CCCCC3)CC[C@H]2C)n1
Alpelisib/BYL719 = compound: Cc1nc(NC(=O)N2CCC[C@H]2C(N)=O)sc1-c1ccnc(C(C)(C)C(F)(F)F)c1 [Alpelisib/BYL719]
[2] = compound: CCCCOc1c(C(=O)c2c(F)cc(C)cc2F)c[nH]c2nncc1-2
Tivantinib/ARQ197 = compound: O=C1NC(=O)[C@@H](c2cn3c4c(cccc24)CCC3)[C@@H]1c1c[nH]c2ccccc12 [Tivantinib/ARQ197]
Cediranib/AZD2171 = compound: COc1cc2c(Oc3ccc4[nH]c(C)cc4c3F)ncnc2cc1OCCCN1CCCC1 [Cediranib/AZD2171]
[3] = compound: CCc1cnn2c(NCc3ccc[n+]([O-])c3)cc(N3CCCC[C@H]3CCO)nc12
AZD6738 = compound: C[C@@H]1COCCN1c1cc(C2([S@](C)(=N)=O)CC2)nc(-c2cc[nH]c3nccc2-3)n1 [AZD6738]
LEE011/Ribociclib = compound: CN(C)C(=O)c1cc2cnc(Nc3ccc(N4CCNCC4)cn3)nc2n1C1CCCC1 [LEE011/Ribociclib]
AZD1775 = compound: C=CCn1c(=O)c2cnc(Nc3ccc(N4CCN(C)CC4)cc3)nc2n1-c1cccc(C(C)(C)O)n1 [AZD1775]
ABT-737 = compound: CN(C)CC[C@H](CSc1ccccc1)Nc1ccc(S(=O)(=O)NC(=O)c2ccc(N3CCN(Cc4ccccc4-c4ccc(Cl)cc4)CC3)cc2)cc1[N+](=O)[O-] [ABT-737]
[4] = compound: CCC1=CN=CN=C1N2CCN(CC2)CC3=NC4=C(N3)C=C(C=C4)C(F)(F)F
BVD523 = compound: CC(C)Nc1cc(-c2c[nH]c(C(=O)N[C@H](CO)c3cccc(Cl)c3)c2)c(Cl)cn1 [BVD523]
[5] = compound: COc1ccc2c(c1)[C@]1(C[C@H]1c1ccc3c(/C=C/c4ccc(CN5C[C@@H](C)O[C@@H](C)C5)cc4)n[nH]c3c1)C(=O)N2
THZ-P1-2 = compound: CN(C)C/C=C/C(=O)NC1=CC=C(C=C1)C(=O)NC2=CC=CC(=C2)NC3=NC=NC(=C3)C4=CNC5=CC=CC=C54 [THZ-P1-2]
Paclitaxel = compound: CC(=O)O[C@H]1C(=O)[C@@]2(C)[C@H]([C@H](OC(=O)c3ccccc3)[C@]3(O)C[C@H](OC(=O)[C@H](O)[C@@H](NC(=O)c4ccccc4)c4ccccc4)C(C)=C1C3(C)C)[C@]1(OC(C)=O)CO[C@@H]1C[C@@H]2O [Paclitaxel]
Luminespib/NVP-AUY922 = compound: CCNC(=O)c1noc(-c2cc(C(C)C)c(O)cc2O)c1-c1ccc(CN2CCOCC2)cc1 [Luminespib/NVP-AUY922]
Flavopiridol = compound: CN1CC[C@H](c2c(O)cc(O)c3c(=O)cc(-c4ccccc4Cl)oc23)[C@H](O)C1 [Flavopiridol]
THZ1 = compound: CN(C)C/C=C/C(=O)Nc1ccc(C(=O)Nc2cccc(Nc3ncc(Cl)c(-c4c[nH]c5ccccc45)n3)c2)cc1 [THZ1]
Saracatinib/AZD0530 = compound: CN1CCN(CCOc2cc(OC3CCOCC3)c3c(Nc4c(Cl)ccc5c4OCO5)ncnc3c2)CC1 [Saracatinib/AZD0530]
R0-3306 = compound: C1=CC2=C(C=CC(=C2)C=C3C(=O)NC(=NCC4=CC=CS4)S3)N=C1 [R0-3306]
TGX221 = compound: CC1=CN2C(=O)C=C(N=C2C(=C1)C(C)NC3=CC=CC=C3)N4CCOCC4 [TGX221]
[6] = compound: Cc1nn(C)c(COc2ccc(N3CCN(S(=O)(=O)N(C)C)CC3)cc2)c1-c1cccc2c(CCCOc3cccc4ccccc34)c(C(=O)O)n(CCN3CCOCC3)c12
senexin b = compound: CN1CCN(C(=O)c2ccc3cc(CCNc4ncnc5ccc(C#N)cc45)ccc3c2)CC1 [senexin b]
Torin2 = compound: C1=CC(=CC(=C1)N2C(=O)C=CC3=CN=C4C=CC(=CC4=C32)C5=CN=C(C=C5)N)C(F)(F)F [Torin2]
[7] = compound: CCN1CCN(Cc2ccc(Nc3ncc(F)c(-c4cc(F)c5nc(C)n(C(C)C)c5c4)n3)nc2)CC1
AZD5363 = compound: NC1(C(=O)N[C@@H](CCO)c2ccc(Cl)cc2)CCN(c2nc[nH]c3nccc2-3)CC1 [AZD5363]
Cabozantinib = compound: COc1cc2nccc(Oc3ccc(NC(=O)C4(C(=O)Nc5ccc(F)cc5)CC4)cc3)c2cc1OC [Cabozantinib]
Ipatasertib/GDC0068 = compound: CC(C)NC[C@@H](C(=O)N1CCN(c2ncnc3c2[C@H](C)C[C@H]3O)CC1)c1ccc(Cl)cc1 [Ipatasertib/GDC0068]
SHP099 = compound: CC1(CCN(CC1)C2=CN=C(C(=N2)N)C3=C(C(=CC=C3)Cl)Cl)N [SHP099]
Pictilisib/GDC0941 = compound: CS(=O)(=O)N1CCN(Cc2cc3nc(-c4cccc5[nH]ncc45)nc(N4CCOCC4)c3s2)CC1 [Pictilisib/GDC0941]
AZD7762 = compound: NC(=O)Nc1cc(-c2cccc(F)c2)sc1C(=O)N[C@H]1CCCNC1 [AZD7762]
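Further: breast cancer and non-malignant breast epithelial cell lines, Deep Dye Drop or Dye Drop imaging, nine half-log doses, GR normalized to time-zero plates and DMSO-only controls.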

| Cell Line | GR50, 72 h (Olaparib/AZD2281) [µM] | GR50, 72 h (Buparlisib/NVP-BKM120) [µM] | GR50, 72 h [1] [µM] | GR50, 72 h (Alpelisib/BYL719) [µM] | GR50, 72 h [2] [µM] | GR50, 72 h (Tivantinib/ARQ197) [µM] | GR50, 72 h (Cediranib/AZD2171) [µM] | GR50, 72 h [3] [µM] | GR50, 72 h (AZD6738) [µM] | GR50, 72 h (LEE011/Ribociclib) [µM] | GR50, 72 h (AZD1775) [µM] | GR50, 72 h (ABT-737) [µM] | GR50, 72 h [4] [µM] | GR50, 72 h (BVD523) [µM] | GR50, 72 h [5] [µM] | GR50, 72 h (THZ-P1-2) [µM] | GR50, 72 h (Paclitaxel) [µM] | GR50, 72 h (Luminespib/NVP-AUY922) [µM] | GR50, 72 h (Flavopiridol) [µM] | GR50, 72 h (THZ1) [µM] | GR50, 72 h (Saracatinib/AZD0530) [µM] | GR50, 72 h (R0-3306) [µM] | GR50, 72 h (TGX221) [µM] | GR50, 72 h [6] [µM] | GR50, 72 h (senexin b) [µM] | GR50, 72 h (Torin2) [µM] | GR50, 72 h [7] [µM] | GR50, 72 h (AZD5363) [µM] | GR50, 72 h (Cabozantinib) [µM] | GR50, 72 h (Ipatasertib/GDC0068) [µM] | GR50, 72 h (SHP099) [µM] | GR50, 72 h (Pictilisib/GDC0941) [µM] | GR50, 72 h (AZD7762) [µM] |
| --- | --- | --- | --- | --- | --- | --- | --- | --- | --- | --- | --- | --- | --- | --- | --- | --- | --- | --- | --- | --- | --- | --- | --- | --- | --- | --- | --- | --- | --- | --- | --- | --- | --- |
| HCC1395 | 1.87 | 0.93 | > 10 | > 10 | 0.00575 | 0.481 | 1.59 | 0.0124 | 1.81 | 3.67 | 0.00604 | > 10 | > 10 | 1.72 | 0.00377 | 2.89 | 0.00388 | 0.005 | 0.126 | 0.022 | 3.76 | 0.463 | 8.42 | > 10 | 5.9 | 0.0146 | 0.112 | 0.135 | 5.55 | 0.926 | > 10 | 1.43 | 0.0217 |
| MDAMB436 | 1.53 | 1.18 | > 10 | > 10 | 1.02 | 0.368 | 3.61 | 0.0143 | 9.07 | > 10 | 0.175 | > 10 | 4.75 | > 10 | 0.00237 | 4.3 | 0.00371 | 0.00391 | 0.159 | 0.135 | > 10 | 4.65 | > 10 | > 10 | 8.65 | 0.0412 | 2.1 | > 10 | 6.5 | > 10 | > 10 | 5.27 | 0.04 |
| HCC1143 | 8.83 | 0.725 | > 10 | 9.88 | 0.00177 | 0.278 | 3.73 | 0.0151 | 5.13 | 3.65 | 0.703 | 6.19 | > 10 | 1.74 | 0.00523 | 5.01 | 0.00207 | 0.00391 | 0.17 | 0.0265 | 3.03 | 1.66 | > 10 | > 10 | > 10 | 0.0447 | 0.0703 | > 10 | > 10 | > 10 | > 10 | 0.978 | 0.0557 |
| HS578T | 8.91 | 0.687 | > 10 | > 10 | 0.0165 | 0.337 | 0.551 | 0.00894 | 5.26 | 2.33 | 0.0155 | > 10 | > 10 | 1.14 | 0.00238 | > 10 | 0.00102 | 0.0033 | 0.148 | 0.0183 | 4.04 | 4.28 | > 10 | > 10 | > 10 | 0.0071 | 0.0776 | 4.82 | 6.38 | 4.59 | > 10 | 1.16 | 0.0151 |
| CAL51 | 7.19 | 0.989 | > 10 | 6.1 | 3.95 | 0.588 | 3.05 | 0.0147 | 5.34 | 3.72 | 0.274 | > 10 | > 10 | > 10 | 0.00556 | > 10 | 0.00417 | 0.00639 | 0.2 | 0.385 | 1.85 | 8.06 | > 10 | > 10 | > 10 | 0.0179 | 0.113 | > 10 | 7.77 | 2.98 | > 10 | 2.89 | 0.0446 |
| HCC1419 | > 10 | 0.396 | 7.64 | 0.669 | 0.65 | 0.473 | 5.06 | 0.0267 | 8.9 | > 10 | 2.59 | 9.85 | 5.28 | > 10 | 0.00375 | 6.2 | 0.00526 | 0.007 | 0.191 | 0.0611 | 0.916 | 8.88 | > 10 | > 10 | 10 | 0.0055 | 0.0969 | > 10 | > 10 | > 10 | > 10 | 0.172 | 0.0686 |
| SUM149 | 3.87 | 1.45 | > 10 | > 10 | 0.0163 | 0.281 | 5.18 | 0.0134 | 3.87 | > 10 | 0.0722 | 3.63 | > 10 | 1.96 | 0.00332 | 6.14 | 0.00159 | 0.00516 | 0.196 | 0.0493 | 2.49 | 4.86 | > 10 | 5.97 | > 10 | 0.142 | 0.594 | 6.67 | 5.87 | 4.56 | > 10 | 6.06 | 0.0774 |

Source: the supplement of paper PMC9663587
